Legend:
THP-1 cells = assay: MTT assay, cell viability of THP-1 cells; assay type: cell-based; details: Homo sapiens, 48 h, mean ± s.d., n = 3, read-out: IC50 values of compounds for leukemia cells
KG-1 cells = assay: MTT assay, cell viability of KG-1 cells; assay type: cell-based; details: Homo sapiens, 48 h, mean ± s.d., n = 3, read-out: IC50 values of compounds for leukemia cells
[1] = test system: AIF translocation in HL-60 and K562 cells; assay: AIF translocation to the nucleus (western blot, immunocytochemistry); assay type: cell-based, human; details: 24 h; 2 μM for Az-O3-GD
Excerpt: Apoptosis-inducing factor (AIF) is known to be translocated from the cytosol to the nucleus during caspase-independent apoptosis (Supplementary Fig. S8b)[39]. In addition, it is also known that Hsp70 interacts with AIF directly and this interacting event results in blocking translocation of AIF to the nucleus and, in turn, prevents caspase-independent apoptosis. Because of these phenomena, we tested if Az has an influence on AIF-mediated caspase-independent apoptosis. To probe this issue, HL-60 and K562 cells were exposed to Az and the levels of AIF in the cytosolic and nuclear fractions were then determined. AIF translocation to the nucleus was not observed in Az-treated cells, based on western blot analysis (Fig. 4d). Additional evidence to support this conclusion was obtained from immunocytochemical analysis of leukemia cells treated with Az (Fig. 4d).
(§1) Western blot analysis. […] peroxidase-conjugated goat anti-rabbit IgG (1:2000, Santa Cruz Bio Technology) and goat anti-mouse IgG (1:2000, Santa Cruz Bio Technology) were used as the secondary antibodies. The blots were developed by using a West-ZOL® plus Western Blot Detection System (Intron Biotechnology Inc., South Korea). Western blot signals were analyzed by using a G:BOX Chemi Fluorescent & Chemiluminescent Imaging System.
Immunocytochemistry. […] Cell images were analyzed using the ZEN 2011 software.

HL-60 and K562 cells [2] = assay: Flow cytometry, fluorescein-annexin V and PI staining; assay type: cell-based, human; details: 24 h; 10 µM Az, 10 µM GD or 4 µM Az-O3-GD
Protocol: (§2) To determine whether Az promotes leukemia cell death via apoptosis, acute leukemia HL-60 and chronic leukemia K562 cells were independently incubated with Az. The treated cells were then exposed to a mixed solution of fluorescein-annexin V and propidium iodide (PI) and flow cytometry analysis was conducted. […] The size of the treated cells was also assessed by using flow cytometry. […] We also investigated if the mitochondrial membrane potential in cells treated with Az is disrupted. To test this possibility, HL-60 and K562 cells were exposed to Az and subsequently stained with a membrane potential sensitive JC-1 probe. […] This serves as another evidence for apoptosis induced by Az.
HL-60 and K562 cells were incubated with each compound for 24 h in culture media. Cells were re-suspended with 500 μL binding buffer (10 mM HEPES, […] and 2.5 mM CaCl2, pH 7.5) and then incubated with the FITC-annexin V apoptosis detection kit with PI according to the protocol provided by the manufacturer. Flow cytometry was carried out by using a BD FACSVerse™ instrument (BD Biosciences) and the data were analyzed by using a FlowJo™ software (BD Biosciences).

HL-60 cells = assay: MTT assay, cell viability of HL-60 cells; assay type: cell-based; details: Homo sapiens, 48 h, mean ± s.d., n = 3, read-out: IC50 values of compounds for leukemia cells
[3] = test system: human leukemia cells (HL-60, KG-1, THP-1, U937, Jurkat and K562 cells); assay: MTT assay, all tested leukemia cells (summary statements); details: all tested leukemia cells, MTT, compared with Az, GD and imatinib
Protocol: To assess anti-leukemia activity of Az, several human leukemia cells (HL-60 cells, acute myeloid leukemia; Jurkat cells, acute T-lymphocytic leukemia; KG-1 cells, acute myeloid leukemia; U937 cells, acute myeloid leukemia; THP-1 cells, acute monocytic leukemia; K562 cells, chronic myeloid leukemia) were incubated with Az for 48 h. […] An MTT assay was then performed to measure cell viabilities.
Cells were exposed to each compound (a HCl salt form) at various concentrations for indicated time periods (24 or 48 h) in culture media. MTT assays were conducted according to known procedures. The absorbance at 570 nm was determined by employing a microplate reader (TECAN, Infinite® 200 PRO).

K562 cells = assay: MTT assay, cell viability of K562 cells; assay type: cell-based; details: Homo sapiens, 48 h, mean ± s.d., n = 3, read-out: IC50 values of compounds for leukemia cells
Jurkat cells = assay: MTT assay, cell viability of Jurkat cells; assay type: cell-based; details: Homo sapiens, 48 h, mean ± s.d., n = 3, read-out: IC50 values of compounds for leukemia cells
[4] = test system: Hsp70 level in HL-60 and K562 cells; assay: Western blot of Hsp70 and Hsp90 levels; assay type: cell-based, human; details: cells treated 24 h
Protocol: Because Az-O3-GD promotes caspase activation in leukemia cells, it was anticipated that procaspase-9, procaspase-3 and PARP would be cleaved in treated cells. To test this possibility, HL-60 and K562 cells were exposed to Az-O3-GD, along with Az and GD as controls and western blot analysis was then carried out. […] Although Az-O3-GD upregulates Hsp70, the presence of the Hsp70 inhibitor in this hybrid causes its cytotoxicity against leukemia cells to be higher than that of GD. Finally, we examined the effect of Az-O3-GD on AIF-mediated caspase-independent apoptosis. To this end, HL-60 and K562 cells were incubated with Az-O3-GD for 24 h.
as §1

U937 cells = assay: MTT assay, cell viability of U937 cells; assay type: cell-based; details: Homo sapiens, U-937, 48 h, mean ± s.d., n = 3, read-out: IC50 values of compounds for leukemia cells
HL-60 and K562 cells [5] = assay: Flow cytometry, JC-1 mitochondrial membrane potential; assay type: cell-based, human; details: 24 h; 10 µM Az or 4 µM Az-O3-GD
Protocol: as §2
JC-1 staining: HL-60 and K562 cells were treated with each compound and then with 2.5 μg/mL JC-1 (Anaspec) in PBS for 15 min. Flow cytometry was conducted with a BD FACSVerse™ instrument (the red fluorescence signal: λex = 550 nm, λem = 600 nm; the green fluorescence signal: λex = 485 nm, λem = 535 nm) and the data were analyzed using a FlowJo™ software.

[6] = test system: caspase activity of HL-60 and K562 cells; assay: Caspase activity assay with Ac-DEVD-pNA in cell lysates; assay type: cell-based, human; details: lysates of cells treated 24 h
Protocol: Because Az inhibits the association of Hsp70 with Apaf-1, caspase associated proteolytic activities should increase in cells treated with Az. To determine whether this event occurs, caspase activities of HL-60 and K562 cells treated with Az were measured by using the colorimetric substrate, Ac-DEVD-pNA (pNA, p-nitroaniline). […] We also examined whether leukemia cells are protected from the effect of Az by ZVAD-FMK (benzyloxycarbonyl-Val-Ala-Asp(OMe) fluoromethyl ketone, a cell-permeable inhibitor of pan-caspases). HL-60 and K562 cells were pre-incubated with ZVAD-FMK for 3 h and subsequently exposed to Az.
HL-60 and K562 cells treated with each compound for 24 h were lysed in a buffer containing 50 mM HEPES (pH 7.4), 5 mM CHAPS and 5 mM DTT. Assay buffer containing 20 mM HEPES (pH 7.4), 0.01% CHAPS, 5 mM DTT and 2 mM EDTA was added to cell lysates. Caspase activity was measured in the absence or presence of acetyl-DEVD-pNA (200 μM) (Sigma-Aldrich) by using a microplate reader (monitored at 405 nm).

With `COc1ccc(-c2nc(-c3cc(C(F)(F)F)cc(C(F)(F)F)c3)n(Cc3ccc(C(=O)NCCCOCCOCCOCCCNC4=C5CC(C)CC(OC)C(O)C(C)C=C(C)C(OC(N)=O)C(OC)C=CC=C(C)C(=O)NC(=CC4=O)C5=O)cc3)c2-c2ccc(OC)cc2)cc1` (stereo not drawn) [Az-O3-GD] the IC50 (THP-1 cells) was 620 ± 270 nM, the IC50 (KG-1 cells) was 1310 ± 300 nM and the “AIF translocation to the nucleus” value [1] was “does not elicit the translocation of AIF to the nucleus”. For the same compound, the “apoptosis, annexin V binding and PI uptake” value (HL-60 and K562 cells [2]) was “induces apoptosis”, the IC50 (HL-60 cells) was 740 ± 270 nM and the “cytotoxicity relative to the individual inhibitors” value [3] was “greatly enhanced cytotoxicities”. For the same compound, the IC50 (K562 cells) was 720 ± 260 nM, the IC50 (Jurkat cells) was 570 ± 180 nM and the “translational level of Hsp70” value [4] was “upregulation of Hsp70”. The IC50 (U937 cells) was 1120 ± 440 nM, the “mitochondrial membrane potential, JC-1 red fluorescence” value (HL-60 and K562 cells [5]) was “significant decrease in the intensity of red fluorescence from JC-1” and the “caspase activity of treated cells” value [6] was “increase”.

Source: publication PMC5471252, “Anti-leukemia activity of a Hsp70 inhibitor and its hybrid molecules” (Scientific Reports, 2017)
